The values below come from article PMC12040169 (PLOS Biology, 2025).

For data set [1], the system named is T1, C. trachomatis L2/434/Bu expressing GFP (CTL2-GFP).
T1 construct: L2/434/Bu GFP intracellular growth in HeLa cells
The data set is described as follows: microbe, parasite or virus in culture. Details: C. trachomatis total inclusion area by high-content imaging, normalised to DMSO. Particulars: Chlamydia trachomatis, HeLa, 28.5 h; total inclusion area; read-out: % of control remaining. The text has this: We screened a library of 36,785 small molecules displaying drug-like properties and covering a wide chemical space (Fig 1A and S2A Data). In this process, we also complemented the assay described above with an imaging-based readout (Fig 1B). After measurements of bulk GFP and resorufin fluorescence, cells were fixed, stained with the DNA dye Hoechst, and imaged at a high-content imaging platform to detect chlamydial inclusions (GFP) and host cell nuclei (Hoechst). The total area and number of inclusions in individual wells and the number of nuclei then served as additional proxies for chlamydial growth and host cell viability. […] MICs were calculated as described above.

Data set [2] has as its system T2, CTL2-GFP (C. trachomatis L2/434/Bu, GFP-expressing).
T2 construct: L2/434/Bu, GFP-expressing
The data set is described as follows: microbe, parasite or virus in culture. On the set-up: Intracellular C. trachomatis growth in HeLa cells, bulk GFP fluorescence relative to DMSO. The conditions noted are these: Chlamydia trachomatis, HeLa, 28.5 h; bulk GFP, mean of 2; read-out: % of control remaining. The protocol: MICs were calculated as described above.

The next data set is described as follows: in vitro. The conditions noted are these: human, hela cells; bulk resorufin, mean of 2. On the set-up: Viability of infected HeLa host cells, resazurin conversion, bulk resorufin fluorescence relative to DMSO.

Molecules are shown by their SMILES.

A word on the viability: it is a read-out of living cells in per cent, often relative to untreated cells.

Take `CC(C)NCC(O)Cn1c2c(c3ccccc31)CCc1c-2cnn1-c1ccccc1` (stereo not drawn) [CBK261107]: in data set [1], the activity at 1 µM worked out at 102%, the activity at 5 µM stood at 73.8% and the activity at 10 µM is 19.6%. Further, in data set [2], the activity at 1 µM was found to be 101%, the activity at 5 µM came out at 105% and the activity at 10 µM is 19.8%. Moreover, in the data set “in vitro”, the viability at 28.5 h, 1 µM turned out to be 87.2%; the viability at 28.5 h, 5 µM stood at 89.4%; the viability at 28.5 h, 10 µM is 82.4%.

Consider `COc1cc(/C=N/c2cccc3c(/N=C/c4ccc(O)c(OC)c4)cccc23)ccc1O` [CBK261224], for which, in data set [1], the activity at 1 µM was 114%, the activity at 5 µM amounted to 68% and the activity at 10 µM was 40.8%. Moreover, in data set [2], the activity at 1 µM was 120%, the activity at 5 µM came out at 67.3% and the activity at 10 µM was 44%. Also, in the data set “in vitro”, the viability at 28.5 h, 1 µM was 89.7%; the viability at 28.5 h, 5 µM was determined as 86.7%; the viability at 28.5 h, 10 µM stood at 81.8%.

For `Cc1cc(C)nc(NS(=O)(=O)c2ccc(Nc3ccc4nonc4c3[N+](=O)[O-])cc2)n1` [CBK261444], in data set [1], the activity at 1 µM was 130%, the activity at 5 µM came to 121% and the activity at 10 µM is 67.5%. In data set [2], the activity at 1 µM is 132%, the activity at 5 µM came out at 92.2% and the activity at 10 µM came out at 60.3%. Moreover, in “in vitro”, the viability at 28.5 h, 1 µM was determined as 92.5%; the viability at 28.5 h, 5 µM turned out to be 86.4%; the viability at 28.5 h, 10 µM was determined as 79.7%.

For `COc1ccc(C(=O)NNC(=O)/C=C/c2ccc(C(C)C)cc2)cc1` [CBK261697], in data set [1], the activity at 1 µM is 121%, the activity at 5 µM worked out at 97.3% and the activity at 10 µM is 48.1%. For the same compound, in data set [2], the activity at 1 µM was 111%, the activity at 5 µM stood at 98% and the activity at 10 µM was 43.2%. Moreover, in “in vitro”, the viability at 28.5 h, 1 µM stood at 95%; the viability at 28.5 h, 5 µM stood at 95.5%; the viability at 28.5 h, 10 µM worked out at 94.3%.

For the compound `c1ccc(Oc2cccc(OCCCN3CCCCC3)c2)cc1` [CBK261781], in data set [1], the activity at 1 µM worked out at 122%, the activity at 5 µM is 69.2% and the activity at 10 µM was found to be 23.4%. In addition, in data set [2], the activity at 1 µM was 131%, the activity at 5 µM amounted to 133% and the activity at 10 µM was 74.4%. Besides, in the data set “in vitro”, the viability at 28.5 h, 1 µM is 103%; the viability at 28.5 h, 5 µM turned out to be 97%; the viability at 28.5 h, 10 µM is 101%.

With `O=C(N/N=C\c1ccc([N+](=O)[O-])o1)c1nc(-c2ccccc2)cc(-c2ccccc2)n1` [CBK261958], in data set [1], the activity at 1 µM turned out to be 4.65%, the activity at 5 µM was 0.0567% and the activity at 10 µM was 0%. Further, in data set [2], the activity at 1 µM was 6.03%, the activity at 5 µM turned out to be 1.53% and the activity at 10 µM came to 7.08%. In the data set “in vitro”, the viability at 28.5 h, 1 µM was determined as 90%; the viability at 28.5 h, 5 µM was 91.8%; the viability at 28.5 h, 10 µM amounted to 87.8%.

For `CN(C)CCCNC(=O)c1ccc([N+](=O)[O-])o1` [CBK262118], in data set [1], the activity at 1 µM amounted to 104%, the activity at 5 µM was 60.7% and the activity at 10 µM amounted to 34.6%. In data set [2], the activity at 1 µM was 133%, the activity at 5 µM came out at 80.5% and the activity at 10 µM is 42.1%. In the data set “in vitro”, the viability at 28.5 h, 1 µM amounted to 97.2%; the viability at 28.5 h, 5 µM turned out to be 98.6%; the viability at 28.5 h, 10 µM is 104%.

For `O=C(O)/C(=N\c1cccc2ccccc12)c1ccccc1` [CBK262224], in data set [1], the activity at 1 µM is 69.5%, the activity at 5 µM stood at 62.2% and the activity at 10 µM worked out at 32.2%. Besides, in data set [2], the activity at 1 µM is 80.4%, the activity at 5 µM worked out at 66.5% and the activity at 10 µM stood at 49.9%. In “in vitro”, the viability at 28.5 h, 1 µM was 87.4%; the viability at 28.5 h, 5 µM was 88.7%; the viability at 28.5 h, 10 µM is 96%.

For `CC(Nc1cccc2ccccc12)C(=O)N/N=C/c1c(O)ccc2ccccc12` (stereo not drawn) [CBK262678], in data set [1], the activity at 1 µM was determined as 100%, the activity at 5 µM was found to be 47.4% and the activity at 10 µM was found to be 21%. Further, in data set [2], the activity at 1 µM was determined as 132%, the activity at 5 µM worked out at 74.4% and the activity at 10 µM is 72.2%. Moreover, in the data set “in vitro”, the viability at 28.5 h, 1 µM was 90.9%; the viability at 28.5 h, 5 µM is 83%; the viability at 28.5 h, 10 µM came out at 74.2%.

Regarding `COc1cc(NS(=O)(=O)c2ccc(Nc3nc(-c4sc(N)nc4C)cs3)cc2)nc(OC)n1` [CBK262796], in data set [1], the activity at 1 µM was found to be 110%, the activity at 5 µM came out at 55.3% and the activity at 10 µM stood at 28.8%. Moreover, in data set [2], the activity at 1 µM came out at 106%, the activity at 5 µM amounted to 58.4% and the activity at 10 µM was found to be 32.6%. In addition, in “in vitro”, the viability at 28.5 h, 1 µM stood at 93.6%; the viability at 28.5 h, 5 µM was found to be 92.2%; the viability at 28.5 h, 10 µM turned out to be 88%.

Take `CCCCc1ccc(NC(=N)Nc2nc(C)cc(C)n2)cc1` [CBK262967]: in data set [1], the activity at 1 µM stood at 75.4%, the activity at 5 µM stood at 38.5% and the activity at 10 µM turned out to be 9.61%. In data set [2], the activity at 1 µM amounted to 89.4%, the activity at 5 µM came to 33.4% and the activity at 10 µM amounted to 22%. For the same compound, in “in vitro”, the viability at 28.5 h, 1 µM was 90.3%; the viability at 28.5 h, 5 µM came out at 95.4%; the viability at 28.5 h, 10 µM stood at 90%.

For the compound `OC(CN1CCOCC1)Cn1c(-c2ccccc2)c(-c2ccccc2)c2ccc3ccccc3c21` (stereo not drawn) [CBK263996G], in data set [1], the activity at 1 µM turned out to be 101%, the activity at 5 µM worked out at 73.2% and the activity at 10 µM was determined as 61.6%. Moreover, in data set [2], the activity at 1 µM came out at 113%, the activity at 5 µM was 96.6% and the activity at 10 µM was 91.1%. In addition, in “in vitro”, the viability at 28.5 h, 1 µM was 90.5%; the viability at 28.5 h, 5 µM was determined as 92.4%; the viability at 28.5 h, 10 µM was determined as 89.5%.

For `Cc1noc(NS(=O)(=O)c2ccc(NC(=O)COc3cccc(Br)c3)cc2)c1C` [CBK264086], in data set [1], the activity at 1 µM turned out to be 93.1%, the activity at 5 µM was 45.5% and the activity at 10 µM is 20.6%. Further, in data set [2], the activity at 1 µM was 96.8%, the activity at 5 µM was determined as 38.7% and the activity at 10 µM was determined as 17.8%. In the data set “in vitro”, the viability at 28.5 h, 1 µM turned out to be 89.3%; the viability at 28.5 h, 5 µM amounted to 91.3%; the viability at 28.5 h, 10 µM worked out at 94.3%.

Consider `Cc1ccc(C(=O)/C=C\Nc2ccc(S(=O)(=O)Nc3cc(C)nc(C)n3)cc2)cc1` [CBK264384], for which, in data set [1], the activity at 1 µM was 79.2%, the activity at 5 µM was found to be 51.7% and the activity at 10 µM turned out to be 35.8%. Further, in data set [2], the activity at 1 µM came out at 110%, the activity at 5 µM was 72.4% and the activity at 10 µM was 31.8%. Also, in “in vitro”, the viability at 28.5 h, 1 µM was 107%; the viability at 28.5 h, 5 µM was found to be 108%; the viability at 28.5 h, 10 µM was found to be 104%.

`CCc1ccc(S(=O)(=O)Nc2cc(SCC(=O)O)c(O)c3ccccc23)cc1` [CBK265580]: in data set [1], the activity at 1 µM amounted to 84.1%, the activity at 5 µM was 15.3% and the activity at 10 µM turned out to be 7.41%. In data set [2], the activity at 1 µM is 97.7%, the activity at 5 µM stood at 47% and the activity at 10 µM was found to be 37.3%. Besides, in the data set “in vitro”, the viability at 28.5 h, 1 µM is 95.6%; the viability at 28.5 h, 5 µM is 88.8%; the viability at 28.5 h, 10 µM amounted to 81.9%.

Consider `Cc1cc(C)nc(NC(=N)NCCc2c[nH]c3ccccc23)n1` [CBK266321], for which, in data set [1], the activity at 1 µM was determined as 75.6%, the activity at 5 µM turned out to be 44.4% and the activity at 10 µM was found to be 14.7%. Moreover, in data set [2], the activity at 1 µM is 89.2%, the activity at 5 µM came to 67.2% and the activity at 10 µM was determined as 37.1%. In addition, in the data set “in vitro”, the viability at 28.5 h, 1 µM stood at 109%; the viability at 28.5 h, 5 µM came to 98.8%; the viability at 28.5 h, 10 µM is 81.2%.

For the compound `OCCNc1nc(Nc2ccc(Br)cc2)nc2ccccc12` [CBK266724C], in data set [1], the activity at 1 µM turned out to be 59.5%, the activity at 5 µM turned out to be 2.92% and the activity at 10 µM was determined as 0.726%. Further, in data set [2], the activity at 1 µM was found to be 69.3%, the activity at 5 µM is 0.15% and the activity at 10 µM was found to be 0%. Moreover, in “in vitro”, the viability at 28.5 h, 1 µM came to 122%; the viability at 28.5 h, 5 µM was 116%; the viability at 28.5 h, 10 µM was 121%.

Take `O=C(CC1SC(Nc2ccc(O)cc2)=NC1=O)c1ccccc1` (stereo not drawn) [CBK267009]: in data set [1], the activity at 1 µM stood at 84.6%, the activity at 5 µM is 35.2% and the activity at 10 µM amounted to 35.5%. Besides, in data set [2], the activity at 1 µM came to 65.7%, the activity at 5 µM stood at 34% and the activity at 10 µM came out at 33%. In “in vitro”, the viability at 28.5 h, 1 µM is 114%; the viability at 28.5 h, 5 µM was found to be 112%; the viability at 28.5 h, 10 µM stood at 107%.

In the case of `O=C(CSCc1ccc(Cl)cc1)Nc1ccc(S(=O)(=O)N2CCCCCC2)cc1` [CBK267017], in data set [1], the activity at 1 µM was determined as 92.3%, the activity at 5 µM came to 104% and the activity at 10 µM was 54.9%. Besides, in data set [2], the activity at 1 µM is 99.4%, the activity at 5 µM turned out to be 85% and the activity at 10 µM came out at 60.7%. Moreover, in “in vitro”, the viability at 28.5 h, 1 µM turned out to be 101%; the viability at 28.5 h, 5 µM is 104%; the viability at 28.5 h, 10 µM worked out at 104%.
